Literature values, collected in article PMC4412257, “2′,6′-Dimethylphenylalanine: A Useful Aromatic Amino Acid Surrogate for Tyr or Phe Residue in Opioid Peptides” (International Journal of Medicinal Chemistry, 2012).
No end group written: not given here.

Legend:
[1] = target: μ-opioid receptor; conditions: rat brain homogenate; read-out: IC50 ± SEM, opioid receptor, [3H]DAMGO (μ); cited from earlier work
[2] = target: δ-opioid receptor; conditions: rat brain homogenate; read-out: IC50 ± SEM, opioid receptor, [3H]DT (δ); cited from earlier work
[3] = target: human ORL1 receptor; design: method as in PMID 16321540; conditions: read-out: IC50 ± SEM, ORL1 receptor, [3H]NOC; cell membrane expressing human ORL1 receptor in Hek-293 cells; cited from earlier work
[4] = target: κ-opioid receptor; design: method as in PMID 16321540; conditions: guinea pig brain homogenate; read-out: IC50 ± SEM, opioid receptor, [3H]U-69593 (κ); cited from earlier work
[5] = design: method as in PMID 16321540; conditions: determined by HPLC; cited from earlier work
[6] = system: Aminopeptidase M; design: method as in PMID 16321540; conditions: determined by HPLC; cited from earlier work
[7] = system: guinea pig ileum (GPI); design: method as in PMID 16321540; conditions: cited from earlier work; for IC50: DYN analogs, read-out: GPI assay IC50 ± SEM; for Ke value of receptor selective antagonist CTAP (μ) / Ke value of receptor selective antagonist N,N(Me)2Dmt-Tic-OH (δ) / Ke value of receptor selective antagonist nor-BNI (κ): GPI assay, antagonist against the peptide

| Substance | IC50 [1] | IC50 [2] | IC50 [3] | IC50 [4] | Half-life time, Rat brain homogenate [5] | Half-life time, Aminopeptidase M [6] | IC50 [7] | Ke value of receptor selective antagonist CTAP (μ) [7] | Ke value of receptor selective antagonist N,N(Me)2Dmt-Tic-OH (δ) [7] | Ke value of receptor selective antagonist nor-BNI (κ) [7] |
| --- | --- | --- | --- | --- | --- | --- | --- | --- | --- | --- |
| [Dmp^4]NOC(1-13)-NH2 [compound 29] | 629 ± 433 nM | > 10000 nM | 51.6 ± 12.9 nM | 299 ± 63 nM | 33.6 min |  |  |  |  |  |
| [Dmp^1]NOC(1-13)-NH2 [compound 30] | 25 ± 6.5 nM | 292 ± 61 nM | 0.814 ± 0.09 nM | 38.8 ± 16.7 nM | 60.3 min | 28 min |  |  |  |  |
| [Dmp^4]DYN(1-13)-NH2 [compound 26] | 22.4 ± 10.2 nM | 931 ± 723 nM | 188 ± 18.2 nM | 0.044 ± 0.035 nM | 315 min |  | 32.2 ± 9.16 nM | 108 nM | 198 nM | 0.63 nM |
| [Dmp^1]DYN(1-13)-NH2 [compound 27] | 16.4 ± 2.35 nM | 10.1 ± 6.02 nM | 6.6 ± 0.952 nM |  | 577 min | >30 min | 306 ± 68 nM | 115 nM | >1000 nM | 10 nM |
| Phe-Gly-Gly-Phe-Thr-Gly-Ala-Arg-Lys-Ser-Ala-Arg-Lys-Leu-Ala-Asn-Gln [NOC, reference compound] | 1540 ± 601 nM | > 10000 nM |  | 643 ± 218 nM |  |  |  |  |  |  |
| [Dmp^1,4]NOC(1-13)-NH2 [compound 31] | 56.8 ± 12.3 nM | 3410 ± 990 nM | 21.3 ± 3.2 nM | 100 ± 29 nM | 27.1 min |  |  |  |  |  |
| [Dmp^1,4]DYN(1-13)-NH2 [compound 28] | 251 ± 56.3 nM | 415 ± 185 nM | 51.5 ± 1.62 nM | 5.45 ± 1.65 nM | 770 min |  | 1340 ± 303 nM | 595 nM |  | 809 nM |
| Met-enkephalin [reference compound] |  |  |  |  | 8.5 min | <5 min |  |  |  |  |
| DYN(1-13)-NH2 (YGGFLRRIRPKLK-NH2; UniProt P01213 207-219, looked up, fragment) [parent peptide, dynorphin A (1-13) amide, reference compound] |  |  | 18.8 ± 3.01 nM |  | 435 min | 15.5 min | 3.14 ± 1.13 nM |  |  |  |
